Tests used:
LCK protein = LCK protein (Homo sapiens (Human), UniProt P06239); assay: LCK Inhibition Assay; assay type: biochemical
Protocol: Test compound was dissolved in DMSO at 10 mM. 45 uL of compound was transfer into a 384-well compound source plate (LABCYTE cat #P-05525) and serially diluted at 1:3 ratio to create a 11-point dilutions. The same volume of DMSO was adopted as high control. 20 nL of these compounds DMSO dilutes were dispensed into a new 384-well assay plate by Echo 550. LCK protein (0.50 nM, Cama Biosciences, cat #08-170), florescent labeled substrate FLPeptide4 (2 μM, PerkinElmer, cat #760348) was prepared in kinase assay buffer (50 mM HEPES (pH 7.5), 10 mM MgCl2, 0.01% Brij-35, 2 mM DTT and 0.005 mg/ml BSA). 15 uL of kinase assay buffer containing LCK protein and substrate was transferred to assay plate and incubate at RT for 30 minutes. Kinase assay buffer supplemented with substrate peptides was employed as low control to monitor the background. 400 μM ATP was prepared in kinase assay buffer and 5 μL of ATP solution was added to each well to start the reaction. The assay plate was incubated at 25° C. for 90 minutes and the reaction was stopped by adding 40 μL of 0.5 M EDTA.
(§1) Phosphorylated fluorescent-tagged peptides were differentiated from non-phosphorylated peptides by separating using Caliper EZ Reader II and the detection was directly converted to conversion ratio.
(§2) For estimation of IC50, the % substrate conversion values are transformed to % Inhibition Ratio by applying the following equation: […]

CSK protein = CSK protein (Homo sapiens (Human), UniProt P41240); assay: CSK Inhibition Assay; assay type: biochemical
Protocol: Test compound was dissolved in DMSO at 10 mM. 45 uL of compound was transferred into a 384-well compound source plate (LABCYTE cat #P-05525) and serially diluted at 1:3 ratio to create a 11-point dilutions. The same volume of DMSO was adopted as high control. 20 nL of these compounds DMSO dilutes were dispensed into a new 384-well assay plate by Echo 550. […] 15 uL of kinase assay buffer containing CSK protein and substrate was transferred to assay plate and incubated at RT for 30 minutes. Kinase assay buffer supplemented with substrate peptides was employed as low control to monitor the background. 4 μM of ATP was prepared in kinase assay buffer and 5 μL of ATP solution was added to each well to start the reaction. The assay plate was incubated at 25° C. for 90 minutes and the reaction was stopped by adding 40 μL of 0.5 M EDTA.
as §1, §2

CSK protein, sequence (P41240 whole entry): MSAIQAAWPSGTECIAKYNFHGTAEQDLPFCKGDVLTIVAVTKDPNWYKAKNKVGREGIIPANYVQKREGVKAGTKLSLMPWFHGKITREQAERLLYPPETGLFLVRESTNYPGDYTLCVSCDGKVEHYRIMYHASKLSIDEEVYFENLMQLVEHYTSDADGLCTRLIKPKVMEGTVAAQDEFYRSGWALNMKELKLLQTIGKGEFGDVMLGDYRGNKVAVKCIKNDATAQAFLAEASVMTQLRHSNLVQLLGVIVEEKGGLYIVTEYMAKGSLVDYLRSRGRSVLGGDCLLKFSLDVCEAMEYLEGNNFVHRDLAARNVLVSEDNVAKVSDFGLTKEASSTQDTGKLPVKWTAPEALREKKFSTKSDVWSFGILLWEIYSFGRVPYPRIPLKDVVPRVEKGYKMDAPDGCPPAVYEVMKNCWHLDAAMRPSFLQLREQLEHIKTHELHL
LCK protein, sequence (P06239 whole entry): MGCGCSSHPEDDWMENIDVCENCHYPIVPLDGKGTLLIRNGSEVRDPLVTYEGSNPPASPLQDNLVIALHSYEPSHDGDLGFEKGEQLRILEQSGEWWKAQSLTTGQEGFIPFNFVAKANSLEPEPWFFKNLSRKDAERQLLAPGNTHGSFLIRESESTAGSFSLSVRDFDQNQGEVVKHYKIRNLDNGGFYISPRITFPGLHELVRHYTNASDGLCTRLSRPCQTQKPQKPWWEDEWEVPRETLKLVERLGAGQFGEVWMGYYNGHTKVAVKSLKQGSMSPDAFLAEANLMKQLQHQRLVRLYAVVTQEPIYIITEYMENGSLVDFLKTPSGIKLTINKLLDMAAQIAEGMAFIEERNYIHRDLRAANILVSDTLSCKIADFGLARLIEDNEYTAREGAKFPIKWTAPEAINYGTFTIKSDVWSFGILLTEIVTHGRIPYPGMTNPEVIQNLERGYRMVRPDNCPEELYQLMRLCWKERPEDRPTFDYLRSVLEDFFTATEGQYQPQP

Structure (SMILES)	IC50 (LCK protein)	IC50 (CSK protein)
Cc1ncc(-c2nc(-c3cccc(NS(=O)(=O)c4c(F)ccc(C)c4F)c3F)c(-c3ccnc(NC4CC4)n3)s2)cn1 [Compound 156]	> 1000 nM	9.3 nM
O=S(=O)(Nc1cccc(-c2nc(-c3cncc(F)c3)sc2-c2ccnc(NC3CC3)n2)c1F)c1c(Cl)cccc1Cl [Compound 80]	> 1000 nM	6 nM
CNc1nccc(-c2sc(-c3ccc(F)cn3)nc2-c2cccc(NS(=O)(=O)c3c(F)cc(Cl)cc3F)c2F)n1 [Compound 134]	> 1000 nM	184 nM
COc1ccn2c(-c3ccnc(NCCO)n3)c(-c3cccc(NS(=O)(=O)c4c(Cl)ccc(C)c4Cl)c3F)nc2c1 [Compound 147]	> 1000 nM	30.3 nM
CNc1nccc(-c2c(-c3cccc(NS(=O)(=O)c4c(F)cccc4F)c3F)nc3cc(OC)ccn23)n1 [Compound 98]	> 1000 nM	78.3 nM
CNc1nccc(-c2sc(C(C)(C)C)nc2-c2cccc(NS(=O)(=O)c3c(F)cccc3F)c2F)n1 [Compound 117]	> 1000 nM	81.5 nM
Nc1nccc(-c2sc(-c3cncc(F)c3)nc2-c2cccc(NS(=O)(=O)c3c(F)cccc3F)c2F)n1 [Compound 17]	> 1000 nM	25 nM
CNc1nccc(-c2sc(-c3cncnc3)nc2-c2cccc(NS(=O)(=O)c3c(F)cccc3F)c2F)n1 [Compound 63]	> 1000 nM	20.6 nM
CNc1nccc(-c2sc(-c3ccc(F)cn3)nc2-c2cccc(NS(=O)(=O)c3c(Cl)cccc3Cl)c2F)n1 [Compound 123]	> 1000 nM	23.2 nM
CNc1nccc(-c2sc(NC)nc2-c2cccc(NS(=O)(=O)c3c(F)cccc3F)c2F)n1 [Compound 114]	100 to 1000 nM	18.5 nM
COc1cc2nc(-c3cccc(NS(=O)(=O)c4c(F)cccc4F)c3F)c(-c3ccnc(N)n3)n2cc1Cl [Compound 100]	> 1000 nM	137 nM
O=S(=O)(Nc1cccc(-c2nc(-c3ccc(F)cn3)sc2-c2ccnc(NC3CC3)n2)c1F)c1c(Cl)cccc1Cl [Compound 135]	> 1000 nM	15.7 nM
Cc1ccc(F)c(S(=O)(=O)Nc2cccc(-c3nc(-c4cncc(F)c4)sc3-c3ccnc(NC4CC4)n3)c2F)c1F [Compound 169]	> 1000 nM	9.1 nM
Nc1nccc(-c2[nH]c(-c3ccccc3)nc2-c2cccc(NS(=O)(=O)c3c(F)cccc3F)c2F)n1 [Compound 85]	100 to 1000 nM	33.2 nM
Nc1nccc(-c2sc(-c3ccc(F)cn3)nc2-c2cccc(NS(=O)(=O)c3c(F)cccc3F)c2F)n1 [Compound 12]	> 1000 nM	61.6 nM
Cc1ccc(F)c(S(=O)(=O)Nc2cccc(-c3nc(-c4ccccc4)sc3-c3ccnc(NCCO)n3)c2F)c1F [Compound 131]	> 1000 nM	13.1 nM
Cc1ccc(Cl)c(S(=O)(=O)Nc2cccc(-c3nc(-c4cncc(F)c4)sc3-c3ccnc(N)n3)c2F)c1Cl [Compound 61]	> 1000 nM	12.6 nM
Cc1ncc(-c2nc(-c3cccc(NS(=O)(=O)c4c(Cl)cccc4Cl)c3F)c(-c3ccnc(NCCO)n3)s2)cn1 [Compound 150]	> 1000 nM	8.1 nM
Cc1ccc(Cl)c(S(=O)(=O)Nc2cccc(-c3nc(-c4ccc(F)cn4)sc3-c3ccnc(NCCO)n3)c2F)c1Cl [Compound 136]	> 1000 nM	108 nM
CN1CCN(c2ccc(Nc3nccc(-c4cn(C5CCCCC5)nc4-c4cccc(NS(=O)(=O)c5c(F)cccc5F)c4F)n3)cn2)CC1 [compound 108]	< 100 nM	2.5 nM
CNc1nccc(-c2sc(N3CCCC3)nc2-c2cccc(NS(=O)(=O)c3c(F)cccc3F)c2F)n1 [Compound 128]	> 1000 nM	12 nM

Structure (SMILES)	IC50 (LCK protein)	IC50 (CSK protein)
CCOc1ncc(-c2nc(-c3cccc(NS(=O)(=O)c4c(F)cccc4F)c3F)c(-c3ccnc(N)n3)s2)cn1 [compound 7]	> 1000 nM	306 nM
COc1cc(NS(=O)(=O)c2c(F)cccc2F)cc(-c2nc(-c3ccccc3)sc2-c2ccnc(N)n2)c1 [Compound 19]	100 to 1000 nM	28.2 nM
O=S(=O)(Nc1cccc(-c2nc(-c3cncc(F)c3)sc2-c2ccnc(NC3CC3)n2)c1F)c1c(F)cccc1F [Compound 68]	> 1000 nM	16.2 nM
Nc1nccc(-c2c(-c3cccc(NS(=O)(=O)c4c(F)cccc4F)c3F)nc3cc(C(=O)O)ccn23)n1 [Compound 96]	> 1000 nM	127 nM
CNc1nccc(-c2sc(N(C)C)nc2-c2cccc(NS(=O)(=O)c3c(Cl)ccc(C)c3Cl)c2F)n1 [Compound 182]	> 1000 nM	8.3 nM
CNc1nccc(-c2sc(-c3cncc(F)c3)nc2-c2cc(Cl)cc(NS(=O)(=O)c3c(F)cccc3F)c2F)n1 [Compound 140]	> 1000 nM	16.5 nM
CNc1nccc(-c2sc(-c3cncc(F)c3)nc2-c2cccc(NS(=O)(=O)c3c(F)cc(OC)cc3F)c2F)n1 [Compound 64]	> 1000 nM	18.3 nM
CC(C)c1nc(-c2cccc(NS(=O)(=O)c3c(F)cccc3F)c2F)c(-c2ccnc(Nc3ccccc3)n2)s1 [Compound 120]	< 100 nM	20.6 nM
COc1ccn2c(-c3ccnc(NCCO)n3)c(-c3cccc(NS(=O)(=O)c4c(F)ccc(C)c4F)c3F)nc2c1 [Compound 130]	> 1000 nM	215 nM
CNc1nccc(-c2c(-c3cccc(NS(=O)(=O)c4c(Cl)cccc4Cl)c3F)nc3cc(OC)ccn23)n1 [Compound 145]	> 1000 nM	113 nM
CNc1nccc(-c2sc(N3CCCCC3)nc2-c2cccc(NS(=O)(=O)c3c(F)ccc(C)c3F)c2F)n1 [Compound 161]	> 1000 nM	10.1 nM
CNc1nccc(-c2sc(-c3cncc(F)c3)nc2-c2cccc(NS(=O)(=O)c3c(F)cccc3F)c2F)n1 [Compound 74]	> 1000 nM	8.8 nM
CNc1nccc(-c2sc(-c3ccccc3)nc2-c2cccc(NS(=O)(=O)c3c(F)ccc(C)c3F)c2F)n1 [Compound 51]	> 1000 nM	33.1 nM
Nc1nccc(-c2cn(C3CCCCC3)nc2-c2cccc(NS(=O)(=O)c3c(F)cccc3F)c2F)n1 [Compound 110]	> 1000 nM	221 nM
O=S(=O)(Nc1cccc(-c2nc(-c3cncc(F)c3)sc2-c2ccnc(NCCO)n2)c1F)c1c(F)ccc(Cl)c1F [Compound 172]	> 1000 nM	5.4 nM
O=S(=O)(Nc1cccc(-c2nc(-c3cncc(F)c3)sc2-c2ccnc(NCCO)n2)c1F)c1c(Cl)cccc1Cl [Compound 79]	> 1000 nM	7.6 nM
CNc1nccc(-c2sc(-c3ccc(F)cn3)nc2-c2cccc(NS(=O)(=O)c3c(F)ccc(Cl)c3F)c2F)n1 [Compound 58]	> 1000 nM	31.5 nM
CNc1nccc(-c2c(-c3cccc(NS(=O)(=O)c4c(F)ccc(C)c4F)c3F)nc3cc(OC)ccn23)n1 [Compound 103]	> 1000 nM	51.8 nM
COc1cc(N2CCOCC2)ccc1Nc1nccc(-c2sc(-c3ccccc3)nc2-c2cccc(NS(=O)(=O)c3c(F)cccc3F)c2F)n1 [Compound 9]	> 1000 nM	50.3 nM
COc1ccc(-c2nc(-c3cccc(NS(=O)(=O)c4c(F)cccc4F)c3F)c(-c3ccnc(N)n3)s2)cc1 [Compound 5]	> 1000 nM	62.7 nM
COc1ccn2c(-c3ccnc(NC4CC4)n3)c(-c3cccc(NS(=O)(=O)c4c(F)ccc(C)c4F)c3F)nc2c1 [Compound 129]	> 1000 nM	7.4 nM
